Compound: O=C(CCCCCCC(=O)Nc1ccccc1)NO [Vorinostat]
Test: relative viability (nuclei count vs DMSO), 5 days (fraction); higher = more cells survive
Method in brief: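 Acceptance criteria were a control CV below 25% and at least one doubling per plate. Lung cancer cell lines in 1536-well plates got five library-drug doses (not always all listed) √10 apart by pinning and were left 5 days with no medium change. Viability divides treated-well nuclei by vehicle-well nuclei and is the median across plates. Nuclei were counted by MetaXpress from 4× Hoechst images.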

Row | Cell Line | relative viability (0.253 µM) | relative viability (0.8 µM) | relative viability (1 µM, anchor plate) | relative viability (2.53 µM) | relative viability (8 µM)
1 | H3255 | 1.02 | 1.13 | 0.791 | 0.573 | 0.286
2 | NCI-H838 | 1.15 | 1.03 | 0.763 | 0.565 | 0.191
3 | EMC-BAC-2 | 0.92 | 0.752 | 0.493 | 0.363 | 0.176
4 | NCI-H1793 | 1.37 | 0.951 | 0.821 | 0.817 | 0.29
5 | NCI-H441 | 1.13 | 1.05 | 0.773 | 0.418 | 0.18
6 | NCI-H3122 | 1.06 | 1.04 | 0.986 | 0.737 | 0.156
7 | NCI-H1651 | 1.01 | 0.928 | 0.579 | 0.203 | 0.0791
8 | NCI-H1734 | 1.28 | 0.982 | 0.832 | 0.688 | 0.15
9 | ABC-1 | 1.16 | 0.707 | 1.23 | 0.32 | 0.171
10 | SK-LU-1 | 1.19 | 0.924 | 0.781 | 0.668 | 0.19
11 | NCI-H322M | 1.17 | 0.87 | 0.915 | 0.6 | 0.385
12 | NCI-H1355 | 1.16 | 0.852 | 0.673 | 0.598 | 0.192
13 | EPLC-272H | 0.976 | 0.767 | 0.533 | 0.373 | 0.157
14 | A-427 | 1.15 | 0.972 | 0.862 | 0.517 | 0.176
15 | BEN | 1.04 | 0.678 | 0.597 | 0.248 | 0.0942
16 | LCLC-103H | 1.08 | 0.961 | 0.781 | 0.812 | 0.272
17 | EKVX | 1.09 | 1.01 | 0.77 | 0.688 | 0.175
18 | SW 900 | 0.653 | 0.644 | 0.576 | 0.391 | 0.128
19 | NCI-H2342 | 0.936 | 1.02 | 0.756 | 0.756 | 0.458

Row | Cell Line | relative viability (0.253 µM) | relative viability (0.8 µM) | relative viability (1 µM, anchor plate) | relative viability (2.53 µM) | relative viability (8 µM)
20 | LU99A | 1.1 | 0.809 | 0.537 | 0.513 | 0.209
21 | SK-MES-1 | 1.11 | 1.02 | 1.08 | 0.555 | 0.203
22 | NCI-H2023 | 1.22 | 0.771 | 0.709 | 0.209 | 0.0744
23 | NCI-H596 | 1.03 | 0.799 | 0.621 | 0.797 | 0.311
24 | NCI-H2009 | 1.14 | 0.878 | 0.711 | 0.482 | 0.153
25 | SW 1573 | 1.25 | 0.938 | 0.84 | 0.485 | 0.0973
26 | NCI-H460 | 1.09 | 0.955 | 0.715 | 0.144 | 0.0458
27 | NCI-H1703 | 1.41 | 1.39 | – | 1.03 | 0.244
28 | HCC-366 | 1.01 | 0.956 | 0.371 | 0.524 | 0.045
29 | HCC-15 | 1.16 | 0.909 | 0.885 | 0.655 | 0.145
30 | NCI-H520 | 1.35 | 0.955 | 0.745 | 0.503 | 0.175
31 | COR-L23 | 1.09 | 0.763 | 0.426 | 0.18 | 0.0822
32 | CAL-12T | 1.13 | 1.09 | 0.807 | 0.537 | 0.137
33 | NCI-H1975 | 1.08 | 0.817 | 0.707 | 0.449 | 0.14
34 | NCI-H1650 | 1.03 | 0.758 | 0.583 | 0.325 | 0.163
35 | LC-2-ad | 0.989 | 0.722 | 0.691 | 0.228 | 0.155
36 | HARA | 1.03 | 0.593 | 0.561 | 0.434 | 0.121
37 | HCC-78 | 0.963 | 0.674 | 0.468 | 0.3 | 0.221

Source: the supplement of paper PMC10307832
